{
  "source": "ChEMBL document CHEMBL1201862",
  "about": "“PubChem BioAssay data set” (2004)",
  "experiment_in_all_cases": "growth of human tumour cells (NCI), 48 h",
  "key": {"A498": {"tested_on": "A498"}, "A549": {"tested_on": "A549"}, "ACHN": {"tested_on": "ACHN"}, "CAKI-1": {"tested_on": "CAKI-1"}, "CCRF-CEM": {"tested_on": "CCRF-CEM"}, "COLO 205": {"tested_on": "COLO 205"}, "DLD-1": {"tested_on": "DLD-1"}, "DMS-114": {"tested_on": "DMS-114"}, "DMS-273": {"tested_on": "DMS-273"}, "EKVX": {"tested_on": "EKVX"}, "HCT-116": {"tested_on": "HCT-116"}, "HCT-15": {"tested_on": "HCT-15"}, "HL-60": {"tested_on": "HL-60"}, "HOP-18": {"tested_on": "HOP-18"}, "HOP-92": {"tested_on": "HOP-92"}, "HT-29": {"tested_on": "HT-29"}, "IGROV-1": {"tested_on": "IGROV-1"}, "K562": {"tested_on": "K562"}, "KM12": {"tested_on": "KM12"}, "LOX IMVI": {"tested_on": "LOX IMVI"}, "LXFL 529": {"tested_on": "LXFL 529"}, "M14": {"tested_on": "M14"}, "MOLT-4": {"tested_on": "MOLT-4"}, "Malme-3M": {"tested_on": "Malme-3M"}, "NCI-H23": {"tested_on": "NCI-H23"}, "NCI-H460": {"tested_on": "NCI-H460"}, "OVCAR-4": {"tested_on": "OVCAR-4"}, "OVCAR-5": {"tested_on": "OVCAR-5"}, "OVCAR-8": {"tested_on": "OVCAR-8"}, "RPMI-8226": {"tested_on": "RPMI-8226"}, "RXF 393": {"tested_on": "RXF 393"}, "RXF 631": {"tested_on": "RXF 631"}, "SF-268": {"tested_on": "SF-268"}, "SF-295": {"tested_on": "SF-295"}, "SF-539": {"tested_on": "SF-539"}, "SK-MEL-28": {"tested_on": "SK-MEL-28"}, "SK-MEL-2": {"tested_on": "SK-MEL-2"}, "SK-MEL-5": {"tested_on": "SK-MEL-5"}, "SN12C": {"tested_on": "SN12C"}, "SNB-19": {"tested_on": "SNB-19"}, "SNB-75": {"tested_on": "SNB-75"}, "SNB-78": {"tested_on": "SNB-78"}, "SR": {"tested_on": "SR"}, "SW-620": {"tested_on": "SW-620"}, "TK-10": {"tested_on": "TK-10"}, "U-251": {"tested_on": "U-251"}, "UACC-257": {"tested_on": "UACC-257"}, "XF498": {"tested_on": "XF498"}},
  "note": "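Values below derive from 48-hour exposures of cells grown in 96-well plates, with endpoints linearly interpolated between the two concentrations bracketing the appropriate inhibition level. GI50 marks 50% less growth.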 Activity calls are given as the source filed them. Rule as the data show it: active = GI50 up to about 1.1 µM and inactive = higher.",
  "data": [
    {"smiles": "COc1nc2[nH]ccc2c(=O)n1C", "values": [
      {"measurement": "GI50", "setting": "A498", "value": "> 100 µM (inactive)"},
      {"measurement": "GI50", "setting": "A549", "value": "> 100 µM (inactive)"},
      {"measurement": "GI50", "setting": "ACHN", "value": "> 100 µM (inactive)"},
      {"measurement": "GI50", "setting": "CAKI-1", "value": "24.3 µM (inactive)"},
      {"measurement": "GI50", "setting": "CCRF-CEM", "value": "> 100 µM (inactive)"},
      {"measurement": "GI50", "setting": "COLO 205", "value": "> 100 µM (inactive)"},
      {"measurement": "GI50", "setting": "DLD-1", "value": "> 100 µM (inactive)"},
      {"measurement": "GI50", "setting": "DMS-114", "value": "> 100 µM (inactive)"},
      {"measurement": "GI50", "setting": "DMS-273", "value": "> 100 µM (inactive)"},
      {"measurement": "GI50", "setting": "EKVX", "value": "> 100 µM (inactive)"},
      {"measurement": "GI50", "setting": "HCT-116", "value": "> 100 µM (inactive)"},
      {"measurement": "GI50", "setting": "HCT-15", "value": "> 100", "unit": "µM"},
      {"measurement": "GI50", "setting": "HL-60", "value": "> 100 µM (inactive)"},
      {"measurement": "GI50", "setting": "HOP-18", "value": "> 100 µM (inactive)"},
      {"measurement": "GI50", "setting": "HOP-92", "value": "> 100 µM (inactive)"},
      {"measurement": "GI50", "setting": "HT-29", "value": "> 100 µM (inactive)"},
      {"measurement": "GI50", "setting": "IGROV-1", "value": "> 100 µM (inactive)"},
      {"measurement": "GI50", "setting": "K562", "value": "> 100 µM (inactive)"},
      {"measurement": "GI50", "setting": "KM12", "value": "> 100 µM (inactive)"},
      {"measurement": "GI50", "setting": "LOX IMVI", "value": "> 100 µM (inactive)"},
      {"measurement": "GI50", "setting": "LXFL 529", "value": "> 100 µM (inactive)"},
      {"measurement": "GI50", "setting": "M14", "value": "> 100 µM (inactive)"},
      {"measurement": "GI50", "setting": "MOLT-4", "value": "> 100 µM (inactive)"},
      {"measurement": "GI50", "setting": "Malme-3M", "value": "> 100 µM (inactive)"},
      {"measurement": "GI50", "setting": "NCI-H23", "value": "> 100 µM (inactive)"},
      {"measurement": "GI50", "setting": "NCI-H460", "value": "> 100 µM (inactive)"},
      {"measurement": "GI50", "setting": "OVCAR-4", "value": "20.5 µM (inactive)"},
      {"measurement": "GI50", "setting": "OVCAR-5", "value": "> 100 µM (inactive)"},
      {"measurement": "GI50", "setting": "OVCAR-8", "value": "> 100 µM (inactive)"},
      {"measurement": "GI50", "setting": "RPMI-8226", "value": "> 100 µM (inactive)"},
      {"measurement": "GI50", "setting": "RXF 393", "value": "> 100 µM (inactive)"},
      {"measurement": "GI50", "setting": "RXF 631", "value": "> 100 µM (inactive)"},
      {"measurement": "GI50", "setting": "SF-268", "value": "> 100 µM (inactive)"},
      {"measurement": "GI50", "setting": "SF-295", "value": "> 100 µM (inactive)"},
      {"measurement": "GI50", "setting": "SF-539", "value": "> 100 µM (inactive)"},
      {"measurement": "GI50", "setting": "SK-MEL-28", "value": "> 100 µM (inactive)"},
      {"measurement": "GI50", "setting": "SK-MEL-2", "value": "> 100 µM (inactive)"},
      {"measurement": "GI50", "setting": "SK-MEL-5", "value": "> 100 µM (inactive)"},
      {"measurement": "GI50", "setting": "SN12C", "value": "> 100 µM (inactive)"},
      {"measurement": "GI50", "setting": "SNB-19", "value": "> 100 µM (inactive)"},
      {"measurement": "GI50", "setting": "SNB-75", "value": "> 100 µM (inactive)"},
      {"measurement": "GI50", "setting": "SNB-78", "value": "> 100 µM (inactive)"},
      {"measurement": "GI50", "setting": "SR", "value": "> 100 µM (inactive)"},
      {"measurement": "GI50", "setting": "SW-620", "value": "> 100 µM (inactive)"},
      {"measurement": "GI50", "setting": "TK-10", "value": "> 100 µM (inactive)"},
      {"measurement": "GI50", "setting": "U-251", "value": "> 100 µM (inactive)"},
      {"measurement": "GI50", "setting": "UACC-257", "value": "> 100 µM (inactive)"},
      {"measurement": "GI50", "setting": "XF498", "value": "> 100 µM (inactive)"}
    ]}
  ]
}
